The compounds below were run against human CD73 enzyme (Homo sapiens (Human), UniProt P21589) (assay: Biochemical CD73 Assay). Details: recombinant human CD73 2 nM, AMP 40 μM, Malachite Green free phosphate detection.
Experimental: Activity of recombinant CD73 was measured by quantification of free phosphate using the Malachite Green detection system (R&D Systems #DY996). Test compounds were solubilized in DMSO and dispensed into 384-well polystyrene plates in a 8-point 3× titration in duplicates. Then, 10 μL of 4 nM human CD73 enzyme (Novoprotein #C446) in phosphate- free assay buffer (10 mM HEPES, pH 7.4, 125 mM NaCl, 1 mM KCl, 10 mM glucose, 2 mM MgCl2) was added to the plates. The compound and enzyme were incubated for 15 min at RT. Then, 10 μL of 80 μM AMP (Sigma Aldrich #A1752) in the assay buffer was added and the reaction mixture was incubated for […] at 37° C. The final concentrations of CD73 and AMP in the reaction were 2 nM and 40 μM, respectively. The reaction was stopped by adding 5 μL of Malachite Green reagent A and incubating for 10 mM at RT, followed by addition of 5 μL of Malachite Green reagent B and incubation for 20 mM at RT. Absorbance was then read at 620 nm with the Flexstation spectrophotometer (Molecular Devices). The IC50 values were determined using a four-parameter nonlinear regression curve fit.

Chain of human CD73 enzyme (P21589 27-574): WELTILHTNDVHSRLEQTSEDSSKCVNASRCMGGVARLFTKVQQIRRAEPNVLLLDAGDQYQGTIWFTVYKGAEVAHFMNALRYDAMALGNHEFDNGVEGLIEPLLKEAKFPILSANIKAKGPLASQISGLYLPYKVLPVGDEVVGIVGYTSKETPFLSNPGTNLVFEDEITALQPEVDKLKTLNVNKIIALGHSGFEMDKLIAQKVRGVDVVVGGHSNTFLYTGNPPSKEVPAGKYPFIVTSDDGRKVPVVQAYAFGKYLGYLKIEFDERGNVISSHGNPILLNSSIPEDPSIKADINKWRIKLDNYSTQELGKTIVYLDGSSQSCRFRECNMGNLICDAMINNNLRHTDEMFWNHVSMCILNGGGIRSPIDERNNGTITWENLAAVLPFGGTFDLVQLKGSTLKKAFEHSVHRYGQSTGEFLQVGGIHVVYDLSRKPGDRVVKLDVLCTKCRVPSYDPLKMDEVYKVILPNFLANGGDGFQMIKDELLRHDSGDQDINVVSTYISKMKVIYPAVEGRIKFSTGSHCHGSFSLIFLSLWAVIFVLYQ

| IC50 [nM] | SMILES |
| --- | --- |
| 6.4 | COC[C@@](OC[C@H]1O[C@@H](n2ncc3c(NC4CCCC4)nc(Cl)nc32)[C@H](O)[C@@H]1O)(C(=O)NS(=O)(=O)N(C)C)P(=O)(O)O [Example 1, ((S)-2-(((2R,3S,4R,5R)-5-(6-Chloro-4-(cyclopentylamino)-1H-pyrazolo[3,4-d]pyrimidin-1-yl)-3,4-dihydroxytetrahydrofuran-2-yl)methoxy)-1-((N,N-dimethylsulfamoyl)amino)-3-methoxy-1-oxopropan-2-yl)phosphonic Acid] |
| 114 | COC[C@](OC[C@H]1O[C@@H](n2ncc3c(NC4CCCC4)nc(Cl)nc32)[C@H](O)[C@@H]1O)(C(=O)NS(=O)(=O)N(C)C)P(=O)(O)O [Example 2, ((R)-2-(((2R,3S,4R,5R)-5-(6-chloro-4-(cyclopentylamino)-1H-pyrazolo[3,4-d]pyrimidin-1-yl)-3,4-dihydroxytetrahydrofuran-2-yl)methoxy)-1-((N,N-dimethylsulfamoyl)amino)-3-methoxy-1-oxourouan-2-yl)phosphonic Acid] |
| 0.48 | COC[C@@](OC[C@H]1O[C@@H](n2ncc3c(NC4CCCC4)nc(Cl)nc32)[C@H](O)[C@@H]1O)(C(=O)NS(=O)(=O)N1CCCC1=O)P(=O)(O)O [Example 3] |
| 6 | COC[C@@](OC[C@H]1O[C@@H](n2ncc3c(NC4CCCC4)nc(Cl)nc32)[C@H](O)[C@@H]1O)(C(=O)NS(=O)(=O)N1CCCC1)P(=O)(O)O [Example 4] |
| 2.3 | COC[C@@](OC[C@H]1O[C@@H](n2ncc3c(NC4CCCC4)nc(Cl)nc32)[C@H](O)[C@@H]1O)(C(=O)NS(=O)(=O)N1CCC1)P(=O)(O)O [Example 5, ((S)-1-(Azetidine-1-sulfonamido)-2-(((2R,3S,4R,5R)-5-(6-chloro-4-(cyclopentylamino)-1H-pyrazolo[3,4-d]pyrimidin-1-yl)-3,4-dihydroxytetrahydrofuran-2-yl)methoxy)-3-methoxy-1-oxopropan-2-yl)phosphonic Acid] |
| 805 | COC[C@](OC[C@H]1O[C@@H](n2ncc3c(NC4CCCC4)nc(Cl)nc32)[C@H](O)[C@@H]1O)(C(=O)NS(=O)(=O)N1CCC1)P(=O)(O)O [Example 6, ((R)-1-(Azetidine-1-sulfonamido)-2-(((2R,3S,4R,5R)-5-(6-chloro-4-(cyclopentylamino)-1H-pyrazolo[3,4-d]pyrimidin-1-yl)-3,4-dihydroxytetrahydrofuran-2-yl)methoxy)-3-methoxy-1-oxopropan-2-yl)phosphonic Acid] |
| 6.2 | COC[C@@](OC[C@H]1O[C@@H](n2ncc3c(NC4CCCC4)nc(Cl)nc32)[C@H](O)[C@@H]1O)(C(=O)NS(=O)(=O)N1CC[C@@H](O)C1)P(=O)(O)O [Example 7] |
| 3 | COC[C@@](OC[C@H]1O[C@@H](n2ncc3c(NC4CCCC4)nc(Cl)nc32)[C@H](O)[C@@H]1O)(C(=O)NS(=O)(=O)N1CC[C@H](O)C1)P(=O)(O)O [Example 9, ((S)-2-(((2R,3S,4R,5R)-5-(6-Chloro-4-(cyclopentylamino)-1H-pyrazolo[3,4-d]pyrimidin-1-yl)-3,4-dihydroxytetrahydrofuran-2-yl)methoxy)-1-(((S)-3-hydroxypyrrolidine)-1-sulfonamido)-3-methoxy-1-oxopropan-2-yl)phosphonic Acid] |

Reference: patent US20240140979A1, “HETEROCYCLIC INHIBITORS OF CD73 FOR TREATMENT OF DISEASE” (Teon Therapeutics, Inc., priority 2022, published 2024)
